In patent US20040006103A1, “Use of chloroquine, hydroxychloroquine and 4 amino-quinolinic derivatives to obtain a drug for the anti retroviral therapy, active towards HIV sensitive strains and towards HIV strains which are resistant to both nucleosidic and non-nucleosidic reverse transcriptase inhibitors and to proteases …” (VALPHARMA S.A., priority 2002, published 2004):
Like-named read-outs stand apart in the source and are kept apart here.

Key:
[1] = system: HIV-1 clinical isolated, characterised by mutations in the protease gene inducing geno-phenotypic resistance to SQV; assay: p24 production susceptibility test (ACTG protocol), Table 8; type: cell-based; settings: for EC50: Human immunodeficiency virus 1, PBMC, read-out: E.C.50 CQ; for S.I. CQ / Fen. CQ (fold): PBMC; for S.I. CQ: I.C.50/E.C.50; for Fen. CQ (fold): ratio to HIV-IIIB
Text: (§1) For the phenotype of the nucleosidic, non-nucleosidic and proteases inhibitors was utilised a method which consider the use of human PBMC and the protocol standardised by the AIDS Clinical Trials Group, after verifying the genotype by sequence analysis.
(§2) In order to assay in vitro the susceptibility to chloroquine and hydroxychloroquine of the viral strains, it was used the protocol of the ACTG which is characterised by the measure, of the production of antigen p24 in strongly infected cells.
(§3) The susceptibility of the viral strains to chemotherapics was determined in cell cultures, prepared in 96 wells microplates, using, for the infection, 0.1 MOI.
(§4) The supernatant of the infected cultures (either in absence or in presence of different concentrations of chemotherapic) were tested for the production of p24 after 7 days, using an ELISA test which is commercially available.
(§5) The concentrations of chloroquine and hydroxychloroquine tested ranged from 0.5 to 15 uM. At the same time non-infected cells were incubated with concentrations of chloroquine and hydroxychloroquine ranging from 0 to 50 uM to evaluate the toxicity of the compound.
(§6) After 4 day from the infection, half the cellular medium was replaced with a medium containing the corresponding dilution of chloroquine and hydroxychloroquine. The percentage of inhibition of the HIV replication, induced by chloroquine and hydroxychloroquine, was determined, after 7 day from the infection, comparing the levels of p24 of this cultures and that of the control, infected and not treated with chloroquine and hydroxychloroquine.
(§7) Therefore, the E.C.50 of chloroquine and hydroxychloroquine expresses the concentration of chemotherapic that inhibits the 50% of production of p24 and the values were calculated using linear and non linear regression analysis (the significativity for the non linear regression was R^2>0.95).
(§8) In the same experimental conditions and in the same day, but with similar concentrations of chloroquine and hydroxychloroquine, it was evaluated the vitality of the infect cell cultures, and this was expressed as I.C.50.
(§9) I.C.50 (Inhibitory Concentration) indicates the concentration of the chemotherapic agent inhibiting the vitality of the cell cultures at a rate of 50%, when there is not infection.

[2] = system: HIV-1 clinical isolated, characterised by mutations on the protease gene inducing geno-phenotypic resistance to NFV; assay: p24 production susceptibility test (ACTG protocol), Table 10, PBMC; type: cell-based; settings: for S.I. CQ: I.C.50/E.C.50; for Fen. CQ (fold): ratio to HIV-IIIB; for EC50: Human immunodeficiency virus 1, PBMC, read-out: E.C.50 CQ
Text: as §1, §2, §3, §4, §5, §6, §7, §8, §9

[3] = system: HIV clinical isolated, characterised by mutations in the RT gene inducing geno-phenotypic resistance to ddI; assay: p24 production susceptibility test (ACTG protocol), Table 2; type: cell-based, HIV-1; settings: for EC50: Human immunodeficiency virus 1, PBMC, read-out: E.C.50 CQ; for S.I. CQ / Fen. CQ (fold): PBMC; for S.I. CQ: I.C.50/E.C.50; for Fen. CQ (fold): ratio to HIV-IIIB
Text: as §1, §2, §3, §4, §5, §6, §7, §8, §9

[4] = system: HIV-1 clinical isolated, characterised by mutations on the protease gene inducing geno-phenotypic resistance to NFV; assay: p24 production susceptibility test, Table 10, H-9 cells; type: cell-based; settings: for S.I. CQ / Fen. CQ (fold): H-9; for S.I. CQ: I.C.50/E.C.50; for Fen. CQ (fold): ratio to HIV-IIIB; for EC50: Human immunodeficiency virus 1, H9, H-9, read-out: E.C.50 CQ
Text: as §1, §2, §3, §4, §5, §6, §7, §8, §9

[5] = system: HIV-1 clinical isolated, characterised by mutations in the RT gene inducing geno-phenotypic resistance to 3TC; assay: p24 production susceptibility test (ACTG protocol), Table 3; type: cell-based; settings: for EC50: Human immunodeficiency virus 1, PBMC, read-out: E.C.50 CQ; for S.I. CQ / Fen. CQ (fold): PBMC; for S.I. CQ: I.C.50/E.C.50; for Fen. CQ (fold): ratio to HIV-IIIB
Text: as §1, §2, §3, §4
At the same time non-infected cells were incubated with concentrations of chloroquine and hydroxychloroquine ranging from 0 to 50 uM to evaluate the toxicity of the compound.
as §6, §7, §8, §9

[6] = system: HIV-1 strains geno-phenotypically resistant to NVP; assay: p24 production susceptibility test, Table 6, MT-2 cells; type: cell-based; settings: for EC50: Human immunodeficiency virus 1, MT2, MT-2, read-out: E.C.50 CQ; for S.I. CQ / Fen. CQ (fold): MT-2; for S.I. CQ: I.C.50/E.C.50; for Fen. CQ (fold): ratio to HIV-IIIB
Text: as §1, §2, §3, §4, §5, §6, §7, §8, §9

[7] = system: HIV-1 strains cultivated in PBMC and isolated from patient naive to the treatment; assay: p24 production susceptibility test (ACTG protocol), Table 11; type: cell-based; settings: for EC50: Human immunodeficiency virus 1, PBMC; for S.I. CQ: I.C.50/E.C.50
Method: as §2, §3, §4, §5, §6, §7, §8, §9

[8] = Gen M4IL M184V L210W R211KL 214F T215Y
[9] = Gen. M4IL E44D D67N M184V R211K T215Y
[10] = Gen. M41L D67N V118I M184V T215Y

CCN(CC)CCCC(C)Nc1ccnc2cc(Cl)ccc12 (centres unmarked) [CQ, chloroquine]
EC50 ([1]; Gen. G48V I84V A74V L90M): 1.8 µM
EC50 ([1]; Gen. G48V V82A): 3.5 µM
EC50 ([1]; Gen. I84V L90M): 2.5 µM
EC50 ([1]; Gen. M46I G48V L63P L90M): 2 µM
EC50 ([1]; Gen. V82A L90M): 1.5 µM
S.I. CQ ([1]; Gen. G48V I84V A74V L90M): 5.5
Fen. CQ (fold) ([1]; Gen. G48V I84V A74V L90M): 1X fold
S.I. CQ ([1]; Gen. G48V V82A): 3.4
Fen. CQ (fold) ([1]; Gen. G48V V82A): 1.9X fold
S.I. CQ ([1]; Gen. I84V L90M): 3.6
Fen. CQ (fold) ([1]; Gen. I84V L90M): 1.3X fold
S.I. CQ ([1]; Gen. M46I G48V L63P L90M): 6.7
Fen. CQ (fold) ([1]; Gen. M46I G48V L63P L90M): 1.1X fold
S.I. CQ ([1]; Gen. V82A L90M): 6
Fen. CQ (fold) ([1]; Gen. V82A L90M): 0.8X fold
S.I. CQ ([2]; Gen. D30N A71V): 5.5
Fen. CQ (fold) ([2]; Gen. D30N A71V): 1X fold
S.I. CQ ([2]; Gen. D30N M46V A71V): 4
Fen. CQ (fold) ([2]; Gen. D30N M46V A71V): 1.2X fold
S.I. CQ ([2]; Gen. G48V V92A): 3.2
Fen. CQ (fold) ([2]; Gen. G48V V92A): 1.6X fold
S.I. CQ ([2]; Gen. V82F L90M): 3.4
Fen. CQ (fold) ([2]; Gen. V82F L90M): 1.5X fold
EC50 ([2]; Gen. D30N A71V): 1.8 µM
EC50 ([2]; Gen. D30N M46V A71V): 2.2 µM
EC50 ([2]; Gen. G48V V92A): 3 µM
EC50 ([2]; Gen. V82F L90M): 2.8 µM
EC50 ([3]; Gen D67N K70R M184V T215Y): 2.5 µM
EC50 ([3]; Gen D67N K70R T215F K70R): 3 µM
EC50 ([3]; Gen K70R T215F K219Q): 1.8 µM
EC50 [3, 8]: 2 µM
EC50 ([3]; Gen M41I T215F): 2 µM
EC50 ([3]; Gen M41L D67N K70R M184V T215Y): 2.5 µM
EC50 ([3]; Gen M41L D67N K70R T215Y): 3 µM
S.I. CQ ([3]; Gen D67N K70R M184V T215Y): 4.5
Fen. CQ (fold) ([3]; Gen D67N K70R M184V T215Y): 1.5X fold
S.I. CQ ([3]; Gen D67N K70R T215F K70R): 3
Fen. CQ (fold) ([3]; Gen D67N K70R T215F K70R): 1.3X fold
S.I. CQ ([3]; Gen K70R T215F K219Q): 5.5
Fen. CQ (fold) ([3]; Gen K70R T215F K219Q): 0.7X fold
S.I. CQ [3, 8]: 4.5
Fen. CQ (fold) [3, 8]: 1.1X fold
S.I. CQ ([3]; Gen M41I T215F): 4
Fen. CQ (fold) ([3]; Gen M41I T215F): 1.1X fold
S.I. CQ ([3]; Gen M41L D67N K70R M184V T215Y): 3.6
Fen. CQ (fold) ([3]; Gen M41L D67N K70R M184V T215Y): 1.3X fold
S.I. CQ ([3]; Gen M41L D67N K70R T215Y): 3.2
Fen. CQ (fold) ([3]; Gen M41L D67N K70R T215Y): 1.2X fold
S.I. CQ ([4]; Gen. D30N): 4.2
Fen. CQ (fold) ([4]; Gen. D30N): 1.3X fold
S.I. CQ ([4]; Gen. V82A): 5
Fen. CQ (fold) ([4]; Gen. V82A): 1.5X fold
EC50 ([4]; Gen. D30N): 2.5 µM
EC50 ([4]; Gen. V82A): 2.7 µM
EC50 [5, 9]: 3 µM
EC50 [5, 10]: 3.5 µM
EC50 ([5]; Gen. M184I): 2.5 µM
EC50 ([5]; Gen. M184V): 3.2 µM
S.I. CQ [5, 9]: 3
Fen. CQ (fold) [5, 9]: 2.1X fold
S.I. CQ [5, 10]: 3.4
Fen. CQ (fold) [5, 10]: 1.9X fold
S.I. CQ ([5]; Gen. M184I): 3.6
Fen. CQ (fold) ([5]; Gen. M184I): 1.1X fold
S.I. CQ ([5]; Gen. M184V): 2.5
Fen. CQ (fold) ([5]; Gen. M184V): 1.4X fold
EC50 ([6]; Gen. G190E): 3.5 µM
EC50 ([6]; Gen. K103N): 3.2 µM
EC50 ([6]; Gen. V106A): 2.8 µM
EC50 ([6]; Gen. Y181C): 3.8 µM
S.I. CQ ([6]; Gen. G190E): 6
Fen. CQ (fold) ([6]; Gen. G190E): 1.9X fold
S.I. CQ ([6]; Gen. K103N): 6.2
Fen. CQ (fold) ([6]; Gen. K103N): 1.7X fold
S.I. CQ ([6]; Gen. V106A): 7.8
Fen. CQ (fold) ([6]; Gen. V106A): 1.5X fold
S.I. CQ ([6]; Gen. Y181C): 6
Fen. CQ (fold) ([6]; Gen. Y181C): 2.1X fold
EC50 ([7]; HIV-1 virus sensitive to the anti-retroviral treatment, range over each experiment, read-out: E.C.50): 1.5 to 3.5 µM
EC50 ([7]; PBMC, Virus N°1, read-out: E.C.50 CQ): 1.5 µM
EC50 ([7]; PBMC, Virus N°2, read-out: E.C.50 CQ): 2.2 µM
EC50 ([7]; PBMC, Virus N°3, read-out: E.C.50 CQ): 1.8 µM
EC50 ([7]; PBMC, Virus N°4, read-out: E.C.50 CQ): 2.5 µM
EC50 ([7]; PBMC, Virus N°5, read-out: E.C.50 CQ): 2 µM
S.I. CQ ([7]; PBMC, Virus N°1): 5
S.I. CQ ([7]; PBMC, Virus N°2): 4
S.I. CQ ([7]; PBMC, Virus N°3): 5
S.I. CQ ([7]; PBMC, Virus N°4): 3.5
S.I. CQ ([7]; PBMC, Virus N°5): 4
